In BigSolDB 2.1:

O=C(O)/C=C/c1ccc(O)cc1
solubility (mole fraction)
Settings | in acetone | in ethanol | in ethyl acetate | in isobutanol | in isopropanol | in methanol | in methyl acetate | in n-butanol | in n-propanol
293.15 K | 0.0383 | 0.0409 | 0.0113 | 0.0193 | 0.0294 | 0.036 | 0.0146 | 0.0323 | 0.0334
298.15 K | 0.0428 | 0.0456 | 0.0128 | 0.0226 | 0.0331 | 0.0395 | 0.0176 | 0.0371 | 0.0373
303.15 K | 0.0468 | 0.0507 | 0.0144 | 0.0256 | 0.0373 | 0.0438 | 0.0205 | 0.0432 | 0.0429
308.15 K | 0.0516 | 0.0552 | 0.0162 | 0.0295 | 0.0417 | 0.0484 | 0.0244 | 0.0503 | 0.0478
313.15 K | 0.0574 | 0.0614 | 0.0183 | 0.0332 | 0.0462 | 0.053 | 0.0292 | 0.0582 | 0.0525
318.15 K | 0.0619 | 0.0666 | 0.0205 | 0.0371 | 0.0511 | 0.0573 | 0.034 | 0.0647 | 0.0588
323.15 K | 0.0685 | 0.0725 | 0.0229 | 0.0425 | 0.0562 | 0.063 | 0.0394 | 0.0731 | 0.0652
328.15 K | 0.0756 | 0.0785 | 0.0256 | 0.0483 | 0.0617 | 0.0693 | 0.0457 | 0.0823 | 0.0714
333.15 K | 0.0825 | 0.0861 | 0.0286 | 0.0535 | 0.067 | 0.0757 | 0.0519 | 0.0924 | 0.0791
